Here are results for 14 compounds from patent US9732046B2, “Substituted 1,2,4-triazines as tubulin inhibitors” (YM Biosciences Australia Pty Ltd., priority 2003, dated 2017).

The subject of assay [1] is DU145 (Prostate Cancer). Description: Cellular growth inhibition assay (MTT), DU145. It counts as cell-based. Particulars: Homo sapiens, DU-145, Table 1, 40 hr incubation. In outline: (§1)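 Late-log-phase cells (K562 in RPMI, DU145 in DMED, PC3 in F12K; all 10% FBS, Glutamx, plus MEM non-essential amino acids for DU145 and PC3) were plated at 50000–200,000 cell/mL (1.1× final) with compounds added at 10× final. After 40 hr at 37° C, 5% CO2, MTT was added for 6 hours, then SDS/HCl lysis overnight and absorbance read at 590 nm.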

The target in assay [2] is T1, TelJak2 (BaF3 TELJAK cells, TEL/Jak2 fusion) (Homo sapiens, UniProt O60674).
T1 construct: The regions encompassing the kinase domain of JAK2 (nucleotides 2994-3914); expressed in transfected cells; host or cells: BaF3 cells bearing the pTET-off plasmid, transfected with pTELJAK2 (pTRE2 vector); the other entry of the earlier key: ETV6 (P41212, Transcription factor ETV6)
The assay can be described thus: Cellular growth inhibition assay (MTT), BaF3 TEL:JAK2 cell line. It counts as cell-based. Particulars: Table 1, 40 hr incubation.

Assay [3] relates to K562 (Chronic Myeloid Leukemia). Description: Cellular growth inhibition assay (MTT), K562. It counts as cell-based. The conditions noted are these: Homo sapiens, Table 1, 40 hr incubation. In outline:
as §1

In assay [4] the test system is Tubulin (microtubule protein). Description: Tubulin assay (turbidometric assay of microtubule assembly). It counts as biochemical. Particulars: Table 1; 50 μM; absorbance at 340 nm, 37° C. As for the experimental part: Turbidometric assays of microtubule assembly were performed by incubating microtubule protein in cuvettes at 37° C. in a thermostatically controlled spectrophotometer measuring the change in absorbance at 340 nm over time. The microtubule protein was incubated with the each test compound at 0° C. and polymerisation was initiated by addition of 1 mM GTP, prior to heating to 37° C.

For assay [5], the target named is T2, TelJak3 (BaF3 TELJAK cells, TEL/JAK3 fusion) (Homo sapiens, UniProt P52333).
T2 construct: For JAK3 Sa1 I/Not I cleaved kinase domain PCR product was ligated with BamH I/Sa1 I cleaved TELproduct; expressed in transfected cells; host or cells: BaF3 cells bearing the pTET-off plasmid, transfected with pTELJAK3 (pTRE2 vector); the other entry of the earlier key: ETV6 (P41212, Transcription factor ETV6)
Description: Cellular growth inhibition assay (MTT), BaF3 TEL:JAK3 cell line. Particulars: Table 1, 40 hr incubation. Format: cell-based.

Assay [6] relates to PC3 (Prostate Cancer). The assay can be described thus: Cellular growth inhibition assay (MTT), PC3. It counts as cell-based. Particulars: Table 1, 40 hr incubation. In outline: as §1

T2 sequence (P52333 with tags, fused parts or gaps): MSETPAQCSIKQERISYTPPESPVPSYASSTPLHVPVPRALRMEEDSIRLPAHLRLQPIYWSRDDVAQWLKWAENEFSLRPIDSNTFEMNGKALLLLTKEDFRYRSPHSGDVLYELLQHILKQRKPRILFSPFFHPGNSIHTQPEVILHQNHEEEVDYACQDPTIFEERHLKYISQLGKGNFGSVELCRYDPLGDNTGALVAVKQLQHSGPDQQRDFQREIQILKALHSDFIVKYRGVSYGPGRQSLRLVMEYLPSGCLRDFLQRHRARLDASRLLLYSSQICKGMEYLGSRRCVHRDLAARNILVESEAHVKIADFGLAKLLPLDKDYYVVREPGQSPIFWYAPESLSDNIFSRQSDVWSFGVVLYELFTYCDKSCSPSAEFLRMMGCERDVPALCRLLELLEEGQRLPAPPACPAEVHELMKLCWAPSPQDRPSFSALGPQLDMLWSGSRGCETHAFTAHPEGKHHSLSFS
T1 sequence (O60674 with tags, fused parts or gaps): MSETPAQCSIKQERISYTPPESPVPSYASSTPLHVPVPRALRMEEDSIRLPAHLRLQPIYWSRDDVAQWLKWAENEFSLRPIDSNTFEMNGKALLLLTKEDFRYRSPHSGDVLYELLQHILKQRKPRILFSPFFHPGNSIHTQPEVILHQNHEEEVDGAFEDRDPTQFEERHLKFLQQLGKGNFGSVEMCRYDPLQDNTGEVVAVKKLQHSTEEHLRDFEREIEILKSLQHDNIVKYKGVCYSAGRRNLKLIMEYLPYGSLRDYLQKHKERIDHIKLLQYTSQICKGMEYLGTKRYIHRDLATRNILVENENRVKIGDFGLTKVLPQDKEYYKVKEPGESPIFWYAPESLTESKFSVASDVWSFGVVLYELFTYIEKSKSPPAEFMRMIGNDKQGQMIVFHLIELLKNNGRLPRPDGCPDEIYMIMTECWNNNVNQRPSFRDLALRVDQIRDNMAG

As a reminder, the inhibition is the relative decrease from the control value, in per cent. Higher therefore signals a strong effect. With `CCC[C@H](Nc1cncc(-c2ccc(NC(=O)NC)c(OC)c2)n1)c1cccnc1`, the inhibition at 20 µM in assay [1], in assay [2], in assay [3], in assay [5] and in assay [6] was over 50% throughout. Also, the “Tubulin inhibition of tubulin polymerisation” value (shortened to “Tubulin inhibition”) in assay [4] was “+ (compounds which inhibited tubulin polymerisation by greater than 50% at 50 μM)”.

`CCCC(Nc1cncc(-c2ccc(NC(=O)NCC)c(OC)c2)n1)c1cncc(C)c1` (stereo not drawn): the inhibition at 20 µM in assay [1], in assay [2], in assay [3], in assay [5] and in assay [6] was over 50% throughout. For the same compound, the “Tubulin inhibition” value in assay [4] is listed as “+ (compounds which inhibited tubulin polymerisation by greater than 50% at 50 μM)”.

As for `CCCC(Nc1cncc(-c2ccc(NC(=O)NCC)c(OC)c2)n1)c1cccnc1C` (stereo not drawn), the inhibition at 20 µM in assay [1], in assay [2], in assay [3], in assay [5] and in assay [6] was over 50% throughout. Besides, the “Tubulin inhibition” value in assay [4] was “+ (compounds which inhibited tubulin polymerisation by greater than 50% at 50 μM)”.

Consider `CCCC(Nc1nc(-c2ccc(NC(=O)NCC)c(OC)c2)cnc1C)c1ccccc1` (stereo not drawn), for which the inhibition at 20 µM in assay [1], in assay [2], in assay [3], in assay [5] and in assay [6] was over 50% each time. Further, the “Tubulin inhibition” value in assay [4] is listed as “+ (compounds which inhibited tubulin polymerisation by greater than 50% at 50 μM)”.

Regarding `COc1cc(-c2nccc(N[C@@H](C)c3ccccc3)n2)ccc1O`, the inhibition at 20 µM in assay [1], in assay [2], in assay [3], in assay [5] and in assay [6] was over 50% in each case. For the same compound, the “Tubulin inhibition” value in assay [4] is “+ (compounds which inhibited tubulin polymerisation by greater than 50% at 50 μM)”.

As to `CCCC(Nc1cncc(-c2ccc(O)c(OC)c2)c1)c1ccccc1` (stereo not drawn), the inhibition at 20 µM in assay [1], in assay [2], in assay [3], in assay [5] and in assay [6] was over 50% each time. In addition, the “Tubulin inhibition” value in assay [4] is “+ (compounds which inhibited tubulin polymerisation by greater than 50% at 50 μM)”.

Regarding `CCC[C@H](Nc1cncc(-c2ccc(NC(=O)NCC)c(OC)c2)n1)c1ccccn1`, the inhibition at 20 µM in assay [1], in assay [2], in assay [3], in assay [5] and in assay [6] was over 50% throughout. Further, the “Tubulin inhibition” value in assay [4] is listed as “+ (compounds which inhibited tubulin polymerisation by greater than 50% at 50 μM)”.

Regarding `CCCC(Nc1cncc(-c2ccc(OCCCN3CCCC3)c(OC)c2)n1)c1ccccc1` (stereo not drawn), the inhibition at 20 µM in assay [1], in assay [2], in assay [3], in assay [5] and in assay [6] was over 50% throughout. The “Tubulin inhibition” value in assay [4] is recorded as “+ (compounds which inhibited tubulin polymerisation by greater than 50% at 50 μM)”.

`CCC[C@H](Nc1cncc(-c2ccc(NC(=O)NCC)c(OC)c2)n1)c1ccccc1`: the inhibition at 20 µM in assay [1], in assay [2], in assay [3], in assay [5] and in assay [6] was over 50% throughout. The “Tubulin inhibition” value in assay [4] is recorded as “+ (compounds which inhibited tubulin polymerisation by greater than 50% at 50 μM)”.

Turning to `CCNC(=O)Nc1ccc(-c2cncc(N[C@@H](CC)c3cccnc3)n2)cc1OC`, the inhibition at 20 µM in assay [1], in assay [2], in assay [3], in assay [5] and in assay [6] was over 50% throughout. The “Tubulin inhibition” value in assay [4] is given as “+ (compounds which inhibited tubulin polymerisation by greater than 50% at 50 μM)”.

For the compound `CCCC(Nc1cncc(-c2cc(C)c(O)c(C)c2)c1)c1ccccc1` (stereo not drawn), the inhibition at 20 µM in assay [1], in assay [2], in assay [3], in assay [5] and in assay [6] was over 50% throughout. For the same compound, in assay [4], the “Tubulin inhibition” value is listed as “+ (compounds which inhibited tubulin polymerisation by greater than 50% at 50 μM)”.

For the compound `CCCC(Nc1cncc(-c2ccc(NC(=O)NCC)c(OC)c2)n1)c1cnccc1C` (stereo not drawn), the inhibition at 20 µM in assay [1], in assay [2], in assay [3], in assay [5] and in assay [6] was over 50% throughout. For the same compound, in assay [4], the “Tubulin inhibition” value is “+ (compounds which inhibited tubulin polymerisation by greater than 50% at 50 μM)”.

Consider `CCCC(Nc1cncc(-c2ccc(OCCCCN3CCCCC3)c(OC)c2)n1)c1ccccc1` (stereo not drawn), for which the inhibition at 20 µM in assay [1], in assay [2], in assay [3], in assay [5] and in assay [6] was over 50% throughout. Further, the “Tubulin inhibition” value in assay [4] was “+ (compounds which inhibited tubulin polymerisation by greater than 50% at 50 μM)”.

Consider `CCCC(Nc1cncc(-c2ccc(NC(=O)NCC)c(OC)c2)n1)c1ccccn1` (stereo not drawn), for which the inhibition at 20 µM in assay [1], in assay [2], in assay [3], in assay [5] and in assay [6] was over 50% each time. Moreover, in assay [4], the “Tubulin inhibition” value is recorded as “+ (compounds which inhibited tubulin polymerisation by greater than 50% at 50 μM)”.
